Source: the supplement of paper PMC10307832

Key:
Test in all cases: relative viability (nuclei count vs DMSO), 5 days (fraction); higher = more cells survive
[1] = compound: COc1cc2c(Oc3ccc4[nH]c(C)cc4c3F)ncnc2cc1OCCCN1CCCC1 [Cediranib] + CS(=O)(=O)N1CCN(Cc2cc3nc(-c4cccc5[nH]ncc45)nc(N4CCOCC4)c3s2)CC1 [Pictilisib] (partner 1 µM)
How it was run: (§1)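 Lung cancer cell lines were seeded in 1536-well plates and dosed by pin tool the next day, with either a single drug or a fixed anchor-drug dose combined with five library-drug doses (not always all listed) spaced in √10 steps. Five days later, one step fixed the cells and stained their nuclei (final 0.05% Triton X-100, 1% formaldehyde, 1 ug/ml Hoechst), and nuclei were counted on 4× images. Relative viability is the nuclei count in treated wells divided by the count in vehicle wells, and each value is the median of duplicate plates.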

[2] = compound: Nc1ncn([C@H]2C[C@H](O)[C@@H](CO)O2)c(=O)n1 [Decitabine] + CC1(C)CCC(c2ccc(Cl)cc2)=C(CN2CCN(c3ccc(C(=O)NS(=O)(=O)c4ccc(N[C@H](CCN5CCOCC5)CSc5ccccc5)c(S(=O)(=O)C(F)(F)F)c4)cc3)CC2)C1 [Navitoclax] (partner 0.5 µM)
How it was run: as §1

[3] = compound: COc1cc2c(Oc3ccc4[nH]c(C)cc4c3F)ncnc2cc1OCCCN1CCCC1 [Cediranib] + CCNC(=O)c1noc(-c2cc(C(C)C)c(O)cc2O)c1-c1ccc(CN2CCOCC2)cc1 [Luminespib] (partner 0.01 µM)
How it was run: as §1

[4] = compound: Nc1ncn([C@H]2C[C@H](O)[C@@H](CO)O2)c(=O)n1 [Decitabine] + Cc1cc(Nc2cc(N3CCN(C)CC3)nc(Sc3ccc(NC(=O)C4CC4)cc3)n2)n[nH]1 [Tozasertib] (partner 0.1 µM)
How it was run: as §1

Cell Line | relative viability ([1]; first compound 0.04 µM) | relative viability ([1]; first compound 0.1265 µM) | relative viability ([1]; first compound 0.4 µM) | relative viability ([1]; first compound 1.265 µM) | relative viability ([1]; first compound 4 µM) | relative viability ([2]; first compound 0.04 µM) | relative viability ([2]; first compound 0.1265 µM) | relative viability ([2]; first compound 0.4 µM) | relative viability ([2]; first compound 1.265 µM) | relative viability ([2]; first compound 4 µM) | relative viability ([3]; first compound 0.04 µM) | relative viability ([3]; first compound 0.1265 µM) | relative viability ([3]; first compound 0.4 µM) | relative viability ([3]; first compound 1.265 µM) | relative viability ([3]; first compound 4 µM) | relative viability ([4]; first compound 0.04 µM) | relative viability ([4]; first compound 0.1265 µM) | relative viability ([4]; first compound 0.4 µM) | relative viability ([4]; first compound 1.265 µM) | relative viability ([4]; first compound 4 µM)
LC-2-ad | 0.655 | 0.567 | 0.411 | 0.395 | 0.201 | 0.323 | 0.325 | 0.253 | 0.197 | 0.148 | 1.05 | 1.06 | 0.99 | 1.08 | 0.772 | 0.479 | 0.419 | 0.299 | 0.334 | 0.371
LCLC-97TM1 | 0.174 | – | 0.168 | 0.122 | 0.248 | 0.16 | 0.194 | 0.172 | 0.103 | 0.684 | 0.918 | 0.776 | 0.787 | 0.771 | 0.842 | 0.167 | 0.17 | 0.129 | 0.11 | 0.0997
LK-2 | 0.607 | 0.524 | 0.573 | 0.591 | 0.319 | 0.739 | 0.881 | 0.664 | 0.358 | 0.332 | 0.217 | 0.16 | 0.196 | 0.159 | 0.188 | 0.168 | 0.166 | 0.182 | 0.155 | 0.19
LOU-NH91 | 0.534 | 0.473 | 0.494 | 0.479 | 0.495 | 0.372 | 0.645 | 0.503 | 0.458 | 0.525 | 0.354 | 0.272 | 0.286 | 0.314 | 0.338 | 0.444 | 0.606 | 0.522 | 0.464 | 0.512
LU99A | 0.354 | – | 0.314 | 0.276 | 0.36 | 0.745 | 0.711 | 0.771 | 0.53 | 0.502 | 0.301 | 0.255 | 0.252 | 0.269 | 0.256 | 0.32 | 0.255 | 0.291 | 0.252 | 0.219
LXF-289 | 0.815 | 0.783 | 0.729 | 0.779 | 0.819 | 0.65 | 0.53 | 0.44 | 0.308 | 0.29 | 0.719 | 0.52 | 0.587 | 0.7 | 0.55 | 0.151 | 0.162 | 0.119 | 0.0869 | 0.0957
NCI-H23 | 0.472 | – | 0.533 | 0.345 | 0.569 | 0.558 | 0.45 | 0.305 | 0.21 | 0.224 | 0.192 | 0.218 | 0.213 | 0.253 | 0.238 | 0.256 | 0.199 | 0.152 | 0.195 | 0.172
NCI-H322M | 0.52 | 0.698 | 0.533 | 0.467 | 0.521 | 0.841 | 0.892 | 0.777 | 0.505 | 0.509 | 0.982 | 1.15 | 0.826 | 0.831 | 0.771 | 0.415 | 0.484 | 0.426 | 0.35 | 0.376
NCI-H441 | 0.492 | 0.474 | 0.45 | 0.378 | 0.426 | 0.258 | 0.293 | 0.274 | 0.259 | 0.223 | 0.471 | – | 0.273 | 0.341 | 0.279 | 0.296 | 0.269 | 0.208 | 0.234 | 0.317
NCI-H460 | 0.466 | 0.7 | 0.355 | 0.33 | 0.397 | 0.974 | 1.03 | 0.612 | 0.292 | 0.198 | 0.0397 | 0.0286 | 0.0301 | 0.0321 | 0.0373 | 0.325 | 0.24 | 0.27 | 0.0551 | 0.0621
NCI-H520 | 0.312 | – | 0.246 | 0.221 | 0.22 | 0.941 | 0.804 | 0.615 | 0.819 | 0.467 | 0.251 | 0.262 | 0.188 | 0.2 | 0.308 | 0.402 | 0.444 | 0.386 | 0.352 | 0.308
NCI-H596 | 0.458 | 0.493 | 0.348 | 0.37 | 0.241 | 0.912 | 0.868 | 0.638 | 0.688 | 0.587 | 0.709 | 1.06 | 0.98 | – | 0.955 | 0.733 | 0.87 | – | 0.526 | 0.466
NCI-H647 | 0.429 | – | 0.392 | 0.324 | 0.385 | 0.796 | 0.836 | 0.355 | 0.219 | 0.178 | 0.13 | 0.308 | 0.174 | 0.157 | 0.212 | 0.262 | 0.192 | 0.172 | 0.0834 | 0.105
NCI-H727 | 0.515 | 0.169 | 0.289 | 0.325 | 0.3 | 0.302 | 0.361 | 0.343 | 0.272 | 0.292 | – | – | 0.511 | 0.463 | 0.395 | 0.587 | 0.445 | 0.518 | 0.754 | 0.747
NCI-H838 | 0.542 | 0.46 | 0.395 | 0.275 | 0.558 | 0.734 | 0.512 | 0.321 | 0.366 | 0.309 | 0.328 | 0.289 | 0.276 | 0.314 | 0.272 | 0.196 | 0.236 | 0.188 | 0.191 | 0.176
NCI-H1355 | 0.392 | 0.273 | 0.41 | 0.263 | 0.476 | 0.695 | 0.583 | 0.471 | 0.248 | 0.913 | 0.739 | 0.871 | 0.686 | 0.813 | 0.719 | 0.315 | 0.334 | 0.263 | 0.224 | 0.224
